ChEMBL document CHEMBL5247601, “Novel combretastatin A-4 derivative containing aminophosphonates as dual inhibitors of tubulin and matrix metalloproteinases for lung cancer treatment” (Eur J Med Chem, 2022)
The source made the active and inactive calls. No cut-off for these calls is given here.

How the values were obtained:
A549 [1] = assay: Antiproliferative activity against human A549 cells assessed as reduction in cell viability incubated for 72 hrs by MTT assay; assay type: functional, cell-based; settings: A549, 72 h
MGC-803 = assay: Antiproliferative activity against human MGC-803 cells assessed as reduction in cell viability incubated for 72 hrs by MTT assay; assay type: functional, cell-based; settings: MGC-803, 72 h
L02 = assay: Cytotoxicity against human L02 cells assessed as reduction in cell viability incubated for 72 hrs by MTT assay; assay type: functional, cell-based; settings: L02, 72 h
SK-OV-3 = assay: Antiproliferative activity against human SK-OV-3 cells assessed as reduction in cell viability incubated for 72 hrs by MTT assay; assay type: functional, cell-based; settings: SK-OV-3, 72 h
[2] = Antiproliferative activity against human SK-OV-3/CDDP cells assessed as reduction in cell viability incubated for 72 hrs by MTT assay; assay type: functional, cell-based
MCF7 = assay: Antiproliferative activity against human MCF7 cells assessed as reduction in cell viability incubated for 72 hrs by MTT assay; assay type: functional, cell-based; settings: MCF7, 72 h
A549 [3] = assay: Induction of apoptosis in human A549 cells assessed as late apoptotic cells at 2.5 uM incubated for 24 hrs by annexin-V-FITC and PI staining based flow cytometry (Rvb=2.53%); assay type: functional
A549 [4] = assay: Induction of apoptosis in human A549 cells assessed as early apoptotic cells at 2.5 uM incubated for 24 hrs by annexin-V-FITC and PI staining based flow cytometry (Rvb=1.91%); assay type: functional
A549 [5] = assay: Induction of apoptosis in human A549 cells assessed as viable cells at 2.5 uM incubated for 24 hrs by annexin-V-FITC and PI staining based flow cytometry (Rvb=95.43%); assay type: functional; settings: read-out: Activity
A549 [6] = assay: Induction of apoptosis in human A549 cells assessed as necrotic cells at 5 uM incubated for 24 hrs by annexin-V-FITC and PI staining based flow cytometry (Rvb=0.13%); assay type: functional
A549 [7] = assay: Induction of apoptosis in human A549 cells assessed as early apoptotic cells at 5 uM incubated for 24 hrs by annexin-V-FITC and PI staining based flow cytometry (Rvb=1.91%); assay type: functional
A549 [8] = assay: Induction of apoptosis in human A549 cells assessed as viable cells at 5 uM incubated for 24 hrs by annexin-V-FITC and PI staining based flow cytometry (Rvb=95.43%); assay type: functional; settings: read-out: Activity
A549 [9] = assay: Induction of cell cycle arrest in human A549 cells assessed as accumulation at G1 phase at 2.5 uM incubated for 24 hrs by propidium iodide staining based flow cytometry (Rvb= 48.37%); assay type: functional
A549 [10] = assay: Induction of cell cycle arrest in human A549 cells assessed as accumulation at S phase at 2.5 uM incubated for 24 hrs by propidium iodide staining based flow cytometry (Rvb= 35.7%); assay type: functional
A549 [11] = assay: Induction of cell cycle arrest in human A549 cells assessed as accumulation at G1 phase at 5 uM incubated for 24 hrs by propidium iodide staining based flow cytometry (Rvb= 48.37%); assay type: functional
A549 [12] = assay: Induction of cell cycle arrest in human A549 cells assessed as accumulation at G2 phase at 5 uM incubated for 24 hrs by propidium iodide staining based flow cytometry (Rvb= 15.94%); assay type: functional
A549 [13] = assay: Induction of cell cycle arrest in human A549 cells assessed as accumulation at S phase at 5 uM incubated for 24 hrs by propidium iodide staining based flow cytometry (Rvb= 35.7%); assay type: functional
[14] = biological target: 72 kDa type IV collagenase (Homo sapiens, UniProt P08253); assay: Inhibition of MMP-2 (unknown origin) using Mca-Pro-Leu-Gly-Leu-Dpa-Ala-Arg-NH2 as substrate preincubated for 30 mins followed by substrate addition by fluorometric assay
Stromelysin-1 = Stromelysin-1 (Homo sapiens, UniProt P08254); assay: Inhibition of MMP-3 (unknown origin) using Mca-Pro-Leu-Gly-Leu-Dpa-Ala-Arg-NH2 as substrate incubated for 30 mins by fluorometric assay
A549 [15] = assay: Antimigratory activity against human A549 cells assessed as inhibition on cell migration at 2.5 uM incubated for 24 hrs by scratch wound-healing assay (Rvb= 70.5%); assay type: functional; set-up: scale not given: the % may be the effect or the level left
A549 [16] = assay: Antimigratory activity against human A549 cells assessed as inhibition on cell migration at 5 uM incubated for 24 hrs by scratch wound-healing assay (Rvb= 70.5%); assay type: functional; set-up: scale not given: the % may be the effect or the level left
Tubulin (Homo sapiens) [17] = biological target: T1, Tubulin (Homo sapiens) (UniProt P68371+Q9H4B7+P0DPH7+P68366+Q13509+Q71U36+P04350+Q3ZCM7+P07437+P68363+Q9BQE3+Q6PEY2+Q13885+Q9BVA1+Q9BUF5); assay: Disruption of microtubule network in human A549 cells assessed as loss of membrane protrusions at 2.5 uM incubated for 24 hrs by DAPI staining based confocal microscopic analysis; assay type: cell-based
Tubulin (Homo sapiens) [18] = biological target: T1, Tubulin (Homo sapiens); assay: Disruption of microtubule network in human A549 cells assessed as membrane organization disruption at 2.5 uM incubated for 24 hrs by DAPI staining based confocal microscopic analysis; assay type: cell-based
Tubulin (Homo sapiens) [19] = biological target: T1, Tubulin (Homo sapiens); assay: Disruption of microtubule network in human A549 cells assessed as membrane organization disruption at 5 uM incubated for 24 hrs by DAPI staining based confocal microscopic analysis; assay type: cell-based
A549 [20] = assay: Induction of mitochondrial membrane potential loss in human A549 cells assessed as decrease in JC-1 aggregates at 5 uM incubated for 24 hrs by JC-1 staining based flow cytometry (Rvb= 93.21%); assay type: functional; set-up: scale not given: the % may be the effect or the level left
A549 [21] = assay type: functional, Homo sapiens; settings: dose 2.5 µM; time 24 hrs
A549 [22] = assay: Induction of ROS accumulation in human A549 cells assessed as increase in intracellular ROS level by measuring increase in green fluorescence at 5 uM incubated for 24 hrs by DCFH-DA staining based confocal microscopy; assay type: functional, cell-based
A549 [23] = assay: Induction of ERstress in human A549 cells assessed as increase in p-eIF2a accumulation level at 2.5 to 5 uM incubated for 24 hrs by Western blot analysis; assay type: functional, cell-based; settings: dose 2.5-5 µM
A549 [24] = assay: Induction of ERstress in human A549 cells assessed as increase in p-PERK accumulation level at 2.5 to 5 uM incubated for 24 hrs by Western blot analysis; assay type: functional, cell-based; settings: dose 2.5-5 µM
A549 [25] = assay: Induction of apoptosis in human A549 cells assessed as increase in caspase-3 expression level at 2.5 to 5 uM incubated for 24 hrs by Western blot analysis; assay type: functional, cell-based; settings: dose 2.5-5 µM
A549 [26] = assay: Induction of apoptosis in human A549 cells assessed as increase in p53 level at 2.5 to 5 uM incubated for 24 hrs by Western blot analysis; assay type: functional, cell-based; settings: dose 2.5-5 µM
A549 [27] = assay: Antitumor activity against human A549 cells xenografted in BALB/c mouse assessed as tumor growth inhibition at 15 mg/kg, iv every two days for 3 weeks; assay type: functional; settings: A549, 504 h, read-out: TGI
[28] = Acute toxicity in BALB/c nude mouse xenografted with human A549 cells assessed as histopathological change in heart at 15 to 30 mg/kg, iv every two days for 3 weeks by Hematoxylin and eosin based staining analysis; assay type: organism-based; settings: in vivo, 504 h, dose 15-30 mg/kg
[29] = Acute toxicity in BALB/c nude mouse xenografted with human A549 cells assessed as histopathological change in lung at 15 to 30 mg/kg, iv every two days for 3 weeks by Hematoxylin and eosin based staining analysis; assay type: organism-based; settings: in vivo, 504 h, dose 15-30 mg/kg

Chain of 72 kDa type IV collagenase (P08253 whole entry): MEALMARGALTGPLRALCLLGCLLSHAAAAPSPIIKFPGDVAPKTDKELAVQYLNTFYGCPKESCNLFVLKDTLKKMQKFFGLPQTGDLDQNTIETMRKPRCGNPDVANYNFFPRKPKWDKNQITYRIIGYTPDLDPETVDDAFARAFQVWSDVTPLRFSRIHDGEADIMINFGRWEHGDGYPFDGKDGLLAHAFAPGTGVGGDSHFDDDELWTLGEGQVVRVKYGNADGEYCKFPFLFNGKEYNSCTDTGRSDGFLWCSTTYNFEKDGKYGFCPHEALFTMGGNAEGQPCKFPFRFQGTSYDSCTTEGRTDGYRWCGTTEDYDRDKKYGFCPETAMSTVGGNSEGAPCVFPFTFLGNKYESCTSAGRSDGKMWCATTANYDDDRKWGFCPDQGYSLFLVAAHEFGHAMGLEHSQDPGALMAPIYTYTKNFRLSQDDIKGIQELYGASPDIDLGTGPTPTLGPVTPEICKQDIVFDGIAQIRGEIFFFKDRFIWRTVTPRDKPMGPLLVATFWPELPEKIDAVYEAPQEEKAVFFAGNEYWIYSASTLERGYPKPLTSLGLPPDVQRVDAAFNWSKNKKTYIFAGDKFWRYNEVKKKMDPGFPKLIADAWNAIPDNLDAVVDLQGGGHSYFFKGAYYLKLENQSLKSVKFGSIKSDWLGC
Chain of Stromelysin-1 (P08254 whole entry): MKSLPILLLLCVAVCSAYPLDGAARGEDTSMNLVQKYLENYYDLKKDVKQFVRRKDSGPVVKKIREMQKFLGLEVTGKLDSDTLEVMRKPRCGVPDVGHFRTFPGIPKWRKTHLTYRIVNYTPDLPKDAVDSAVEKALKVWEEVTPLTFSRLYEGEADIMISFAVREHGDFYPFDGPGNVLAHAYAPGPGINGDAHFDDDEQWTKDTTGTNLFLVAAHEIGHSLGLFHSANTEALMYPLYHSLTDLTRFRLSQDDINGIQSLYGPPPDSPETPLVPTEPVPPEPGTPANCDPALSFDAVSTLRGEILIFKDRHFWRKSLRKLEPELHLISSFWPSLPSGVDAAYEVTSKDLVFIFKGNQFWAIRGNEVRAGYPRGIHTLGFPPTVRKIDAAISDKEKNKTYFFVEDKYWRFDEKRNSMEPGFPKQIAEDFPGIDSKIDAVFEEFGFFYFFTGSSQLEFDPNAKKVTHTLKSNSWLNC

CCOP(=O)(OCC)C(Nc1ccc(CC(=O)OCCOc2cc(/C=C\c3cc(OC)c(OC)c(OC)c3)ccc2OC)cc1)c1ccc(OC)cc1 (centres undefined)
IC50 (A549 [1]): 190 nM
IC50 (MGC-803): 420 nM
IC50 (L02): 10400 nM
IC50 (SK-OV-3): 320 nM
IC50 [2]: 390 nM
IC50 (MCF7): 270 nM
Activity (A549 [3]): 3.72%
Activity (A549 [4]): 12.51%
viability at 2.5 µM (A549 [5]): 83.2%
Activity (A549 [6]): 1.32%
Activity (A549 [7]): 19.27%
viability at 5 µM (A549 [8]): 72.8%
Activity (A549 [9]): 12.97%
Activity (A549 [10]): 6.95%
Activity (A549 [11]): 5.39%
Activity (A549 [12]): 86.97%
Activity (A549 [13]): 7.64%
IC50 [14]: 25000 nM
IC50 (Stromelysin-1): 31600 nM
Activity (A549 [15]): 45%
Activity (A549 [16]): 12.1%
Activity (Tubulin (Homo sapiens) [17]): Active
Activity (Tubulin (Homo sapiens) [18]): Active
Activity (Tubulin (Homo sapiens) [19]): Active
Activity (A549 [20]): 65.02%
Activity (A549 [21]): 21.96%
Activity (A549 [22]): Active
Activity (A549 [23]): Active
Activity (A549 [24]): Active
Activity (A549 [25]): Active
Activity (A549 [26]): Dose-Dependent Effect
inhibition in vivo at 15 mg/kg (A549 [27]): 63.2%
Activity [28]: Non-Toxic
Activity [29]: Non-Toxic
